Assay results: US9175077B2, “Nucleic acids encoding biologically active polypeptides derived from a novel early stage pregnancy factor designated maternin (MA)” (NOBEL BIOSCIENCES LLC, priority 1999, dated 2015)

Key:
[1] = Lethal dose taxol in Sprague-Dawley rats; type: in vivo; settings: for survival of pretreated animals: low dose, two doses 24 and 48 hrs before taxol; for survival maintained to day 80 / survival on day 5: therapy maintained 28 days; for survival on day 5: low or high dose
Description: Sprague-Dawley rats were given taxol in large lethal doses, 4.5 mg in one I.P. inoculation. […] Bone marrow suppression can also be a side effect of the clinical use of taxol.^179 As in the radiation experiments, either MA, pMA, MAS1, or various polypeptide controls were given subcutaneously only in two doses 24 and 48 hrs before taxol treatment or were given 3×/week for 4 weeks. […]

[2] = Lethally irradiated rats and mice; settings: treated at time of radiation, 3×/week for 4 weeks
Description: In order to determine in vivo relevance of the prohematopoietic effects of MA treated rats and mice under several conditions of bone marrow suppression. First, the effects of native MA and pMA and of the synthetic 15-mer MAS1 were treated for their capacity to reduce or prevent the effects of lethal doses of gamma irradiation. […] MA, pMA, MAS1, and various control polypeptides were given 48 and 24 hrs before, during, or 24 hrs after radiation. The animals treated prior to radiation received either 100 ng vs. 1 ug (rats) or 50 ng vs. 500 ng (mice) as 2 subcutaneous injections.
It is not yet possible to determine the precise molar dose of pMA because of less certainty on its full-length sequence.
To ascertain that the MA effect did promote hematopoiesis in these animals we examined the bone marrow for cellularity and colony formation and determined peripheral blood counts.

HIV-1 gene expression = test: HIV-1 transgenic mice, pups feeding from treated mothers; type: in vivo
Excerpt: The transgenic mice contain 5.1 kb of the HIV-1 proviral genome, lacking gag and pol genes and 2.3 kb of vector.^172 The newly developed transgenic rat contains the same HIV-1 sequences and vector.
Twenty-four hours after birth the mothers were either inoculated subcutaneously daily for 10 days or received an implanted osmotic pump delivering 30-150 pmoles of either native or synthetic MA or pMA. Various control polypeptides were used at equimolar or vast molar excess. The newborn pups were then allowed to feed from the foster mother breast milk over the entire period. Since the animals are at risk from needle inoculation, breastfeeding was the chosen route for MA administration.
In these experiments total RNA was extracted from samples of skin RNA206 10 days after birth of MA treated and untreated mice. One ug of RNA was reverse transcribed into cDNA using random hexamer primer and […] reverse transcriptase (Life Technologies, Inc.) in a final vol. Of 30 ul. Three ul of each reaction was used for PCR amplification of the HIV-1 gene sequences (env, tat, nef, and rev) as described […], and glyceraldehyde 3-phosphate dehydrogenase (GAPDH) was amplified from each sample for normalization. After 25 cycles, 10% of the products were resolved by electrophoresis on 2% agarose gels, transferred to nitrocellulose membranes by Southern blotting, and hybridized to fluorescein isthiocyanate-labeled oligonucleotide probes complementary to internal sequences of the amplicons […]. Bound probes were detected by chemiluminescence (Amersham) and relative mRNA levels determined by densitrometry after normalization with GAPDH mRNA levels.

human tumor cells = type: cell-based; settings: controls at equimolar or 5 to 10× greater concentrations
Description: The anti-tumor activities of MA were assessed in several in vitro and in vivo systems using published methods.^166 In vitro studies were with a wide variety of human tumor cell lines as well as short-term cultures of cells from biopsy samples obtained from tumors. The assays included effects of MA on colony formation, cell number and viability (trypan blue), and apoptosis. Four measures of microscopy were used. In vivo studies included the effects of MA on tumors induced in immunodeficient mice by xenotransplanted various human neoplastic cells, spontaneous neoplasms of immuno-competent mice and rats, and a few standard tumors in immuno-competent mice. Representative examples are presented.
Cells (5×10^5/ml) were seeded in modified Eagle's medium supplemented with 10% FCS, 10% conditioned medium form PHA stimulated human lymphocytes, 2 mM glutamine in 0.8% V/V methylcellulose with or without various treatments in a final volume of 1.0 ml. Then 0.1 ml aliquots were seeded in 96 well flat bottom microtest plates and incubated at 37° C. in 5% CO2 in air for 7 days. Aggregates containing 50 cells or more were scored as colonies.
5×10^5 cells were seeded in triplicate on 24 gelatin coated wells in conditions as described for Panel A and treated with the indicated test materials. After 3 days the cells were dislodged from their monolayers by gentle pipetting with cell dissociation buffer (Life Technologies), counted after trypan blue staining and aliquots examined for Annexin V staining by indirect IFA […].
Studies of the anti-tumor cell effects of MA were extended to other carcinomas, melanoma, some hematopoietic tumors, and carcinomas of the colon, prostate, breast, lung, brain, pancreas, and kidney-using cell lines from these tumors. […] Many more types of tumor cells were studied utilizing other assays (see below).

[3] = tested on: primary human tumor cells; test: Short-term cultured primary human tumor cells, growth and apoptosis; type: cell-based; settings: 200 ng/ml; 3 days culture; 10% serum
Excerpt: Because cell lines might be more susceptible to growth inhibition and apoptosis, the effects of MA on short-term cultured human tumor cells were investigated. The cells were obtained from biopsied specimens and immediately cultured (primary cultures). The results were similar to the results with tumor cell lines. […] FIG. 3, Panels A and B are representative results with primary breast and prostate carcinomas respectively. These pro-apoptotic effects of MA on human tumor cells were with 10% serum rather than the lower concentrations sometimes used to make cells more susceptible to apoptosis.
More extensive studies of primary human tumor cells were carried out utilizing confocal microscopy.
With the exception of the kidney carcinoma, which was a biopsy sample direct from the tumor, the samples were from pleural effusions which developed after metastasis to the lung. The breast, prostate, and colon carcinomas were freshly obtained and immediately cultured, whereas the lung and kidney carcinomas went through 22 and 18 passes respectively before they were used in these studies. All cells were examined after 3 days culture in the presence or absence of MA (200 ng/ml) or other treatments. […]

[4] = tested on: human primitive hematopoietic stem cells; test: Long term cultures (LTC-IC, stroma-free) of CD34+, CD38− cells from human BMMC; type: cell-based
Description: In the human system, a long-term culture-initiating assay (LTC-IC) can be used to detect cells that can generate myeloid clonogenic cells (CFC/colony forming cells) in long-term cultures for a minimum of 5 weeks. Bone marrow stromal was produced by culturing 107 fresh BM-MNC in a T25 flash for at least 2 weeks in 5 mL stromal medium; 12.5% horse [HS] and 12.5% fetal calf serum [FCS]; both from hyclone [Logan, Utah], Iscove's modified Dulbecco's medium [IMDM, GIBCO-BRL], 2-mercaptoethanol [Sigma, st. Louis, Mo.], 10^−6 mol/L hydrocortisone [Sigma] and penicillin/streptomycine.
One or 2 days before co-cultures, bone marrow stroma was irradiated with 15Gy and plated at 7×10^3/cm^2 in 24-well plates to form pre-established stromal layers for the long-term cultures. Limiting dilution was 1 to 1000 CD34+ bone marrow/cord blood cells and equivalent aliquots, i.e., limiting dilutions of the cells grown in long-term cultures stroma-free cultures after 2 to 20 weeks were seeded on top of the irradiated bone marrow stroma in culture medium containing IMDM, 12.5% HS, 12.5% FCS, 2-mercptoethanol, and 10^−6 mon-hydrocortisone for 5 weeks LTC-IC assay period. Non-adherent cells were removed from the cultures, combined with the corresponding trypsinized adherent cells, washed and assayed for colony forming units (CFU-Cs) in methylcellulose medium containing 1.3% methylcellulose (Fluka Chemilka Biochemika, buck\hs, Switzerland), 30% FCS, EPO (3 U/ml), IL-3 (20 ng/ml), G-CSF (20 ng/ml), GM-CSF (20 ng/ml) and KL (c-kit, 50 ng/ml). These cultures were incubated at 37° C. and colonies were scored 2 to 3 weeks later. LTC-IC enumeration was based on the number of CFU-C scored in the limiting assays [LDA] and another technique.
Stroma-free long-term cultures were performed as follows. 2 to 10×10^3 CD34+/CD34^−CD38^− from bone marrow/CB/PBMC cells were cultured in quadrutriplicate flat bottomed 24 well plates in 1 ml to of IMDM supplemented with 10% FCS and the following cytokines: IL-3 (10 ng/ml), IL-6 (10 ng/ml), KL [c-kit 50 ng/ml, FL (50 ng/ml) and TPO (10 U/ml), which added, alone or in combination of two or more factors, to each series of microwells twice a week. The wells were grown at 37° C. and share a number of features with in vivo murine long-term repopulating cells. These include assay for cobblestone areas colony forming cells (CAFC), high proliferative potentials colony-forming cells (HPP-CFC), CFU-GEMM, CFU-B1 (blast colony forming units).

[5] = tested on: prostate carcinoma cell line PC3; test: Confocal microscopy apoptosis; type: cell-based, human; settings: 200 ng/ml; 24 hrs
Description: (§1) More extensive studies of the effects of MA and with truncated synthetic forms of MA (MAS) on a wide range of other human tumor cells were carried out using three-dimensional confocal microscopy. Cells were cultured and then seeded onto gelatinized glass chamber slides and incubated 24 hrs with the various test materials. The slides were then fixed with formalin and treated serially with Triton X-100 (0.01%) for 10 min at 25°, 0.4 ug/ml fluorescein isothiocyanate (FITC)-labeled Phalloidin (Sigma Chem. Co.) at room temperature for 30 min to bind actin, washed with PBS and the DNA stained with Propidium iodide (PI) (0.5 ug·ml) (Sigma Chemical Co.), for 15 min. The stained slides were washed and mounted on slow fade (Molecular Probes, Inc., Eugene, Oreg.) and examined through a dual emission filter XF53 (Omega, Inc., Brattlesboro, Va.) by fluorescent microscopy. In some experiments only DNA staining was performed. In these instances Triton X-100 was not used. The slides were stained with PI and examined for cell morphology and chromatin degradation under 3D confocal microscopy.

[6] = tested on: leukemia and lymphoma cell lines: HUT78, DAVDI, HG, SULTAN, T-cell lymphoma; test: Confocal microscopy apoptosis; type: cell-based, human; settings: 200 ng/ml; 24 hrs
Description: as §1

Ewing's sarcoma = test: Confocal microscopy apoptosis; type: cell-based, human; settings: 200 ng/ml; 24 hrs
Description: as §1

[7] = tested on: prostate carcinoma cell line PC4; test: Confocal microscopy apoptosis; type: cell-based, human; settings: 200 ng/ml; 24 hrs
Description: as §1

fibrosarcoma 4TB166 = test: Confocal microscopy apoptosis; type: cell-based, human; settings: 200 ng/ml; 24 hrs
Description: as §1

[8] = tested on: carcinoma of the lung HTB184; test: Confocal microscopy apoptosis; type: cell-based, human; settings: 200 ng/ml; 24 hrs
Description: as §1

gliobastoma HTB16 = test: Confocal microscopy apoptosis; type: cell-based, human; settings: 200 ng/ml; 24 hrs
Description: as §1

KS Y-1 cells = test: Confocal microscopy apoptosis; type: cell-based, human; settings: 200 ng/ml; 24 hrs
Description: as §1

melanoma HTB67 = test: Confocal microscopy apoptosis; type: cell-based, human; settings: 200 ng/ml; 24 hrs
Description: as §1

[9] = tested on: carcinoma of the pancreas CRL 1682; test: Confocal microscopy apoptosis; type: cell-based, human; settings: 200 ng/ml; 24 hrs
Description: as §1

[10] = tested on: carcinoma of the breast HTB124; test: Confocal microscopy apoptosis; type: cell-based, human; settings: 200 ng/ml; 24 hrs
Description: as §1

[11] = tested on: carcinoma of the kidney HTB46; test: Confocal microscopy apoptosis; type: cell-based, human; settings: 200 ng/ml; 24 hrs
Description: as §1

carcinoma of the colon = test: Confocal microscopy apoptosis; type: cell-based, human; settings: 200 ng/ml; 24 hrs
Description: as §1

Acutely bled rats = type: in vivo, Sprague-Dawley rats; settings: i.p. 24 and 48 hrs after 35-40% blood loss
Excerpt: To delineate the effects of MA on hematopoiesis in the absence of any external bone marrow suppression, blood (35-40% of total blood volume) was removed from five Sprague-Dawley rats by intracardiac puncture. […] Each panel illustrates the mean values for the three animals treated with MAS1. Thus, MA and related derivatives have potent pro-hematopoietic effects.

pMA: natural peptide 38 amino acids in length, β-hCG 55-92 (SEQ ID NO: 3) (VVCNYRDVRFESIRLPGCPRGVNPVVSYAVALSCQCAL; listed as Homo sapiens)
survival of pretreated animals [1]: Sixty-percent | survival maintained to day 80 ([1]; high dose (1000 ng)): ~80% | survival maintained to day 80 ([1]; low dose (100 ng)): about 60% | survival on day 5 [1]: 100% | survival ([2]; higher dose, over 100 days): 100% | weight over the ten day period (HIV-1 gene expression; 30-150 pmoles): quadrupled their weight | survival / development of pups (qualitative) (HIV-1 gene expression; mothers treated, pups breast fed): survived | HIV-1 viral expression in tissues (HIV-1 gene expression; mouse, in vivo): marked inhibition of viral expression | inhibition of growth / induction of apoptosis of neoplastic cells (human tumor cells): induce apoptotic death | growth inhibition and apoptosis of primary human tumor cells [3]: effective

VRFESIRLPGCPRGV (listed as Homo sapiens) [MAS1]
survival of pretreated animals [1]: Sixty-percent | survival maintained to day 80 ([1]; high dose (1000 ng)): ~80% | survival maintained to day 80 ([1]; low dose (100 ng)): about 60% | survival on day 5 [1]: 100% | survival ([2]; higher dose, over 100 days): 100% | survival ([2]; lowest doses): 80% | Rx MAS1: % of CD1 [4]: 35% | Rx MAS1: % of CD68 [4]: 27% | induction of apoptosis [5]: induced apoptosis | induction of apoptosis [6]: induced apoptosis | induction of apoptosis (Ewing's sarcoma): induced apoptosis | induction of apoptosis [7]: induced apoptosis | induction of apoptosis (fibrosarcoma 4TB166): induced apoptosis | induction of apoptosis [8]: induced apoptosis | induction of apoptosis (gliobastoma HTB16): induced apoptosis | induction of apoptosis (KS Y-1 cells): induced apoptosis | induction of apoptosis (melanoma HTB67): induced apoptosis | induction of apoptosis [9]: induced apoptosis | induction of apoptosis [10]: induced apoptosis | induction of apoptosis [11]: induced apoptosis | induction of apoptosis (carcinoma of the colon): induced apoptosis | recovery of peripheral blood cells (Acutely bled rats): prompt recovery
